experiment: in vivo; details: male, Sprague-Dawley, rat, po, 36.99 g/kg
Protocol: (§1) SPF grade Sprague–Dawley rats (n = 6, male, 8–10-week-old, 300 ± 20 g) were obtained from the Guangdong Medical Laboratory Animal Center (Guangzhou, China, Certificate No. SCXK 2022–0002), maintained in environmental conditions with a temperature of 20–25 °C, humidity of 55 ± 15%, and a 12-h light/dark cycle. Animals were acclimated for 7 days prior to drug administration. The experimental procedures and protocols have been approved by the Animal Ethics Committee of the School of Life Sciences, Sun Yat-sen University (Ethics approval No. SYSU-lS-IACUC- 2024–0130, Guangzhou, China), with every effort being made to minimize the suffering of the animals.
(§2) In order to investigate the absorbable components in vivo, Yinling Qushi (YLQS) extract was prepared as follows: 77.76 g of Poria cocos (Schw.) Wolf (Fuling, FL), 29.16 g of Atractylodes macrocephala Koidz. (Baizhu, BZ), 12.96 g of Zingiber officinale Rosc. (Ganjiang, GJ), 19.44 g of Polyporus umbellatus (Pers.) Fries (Zhuling, ZL), 19.44 g of Cinnamomum cassia Presl (Guizhi, GZ), 24.30 g Artemisia capillaris Thunb. (Yinchen, YC), 19.44 g Glehnia littoralis Fr.Schmidt ex Miq. (Beishashen, BSS) and 19.44 g of Glycyrrhiza uralensis Fisch. (Gancao, GC) were weighted. The weighted herbs were mixed thoroughly and extracted with 750 mL boiling water for 1 h, twice. The aqueous extracts were combined, filtered, and concentrated by rotary evaporation to a total volume of 12 mL, with a final extraction yield of 18.5 g crude herbal materials per 1 mL of Yinling Qushi (YLQS) extract.
(§3) SD Rats were fasted for 12 h, followed by orally administrated with Yinling Qushi (YLQS) extract at a dose of 36.99 g/kg (6.7 mL/kg). 200 μL of venous blood was collected at 0 min, 15 min, 30 min, 1 h, 2 h, 4 h, 6 h, 8 h, 10 h, 12 h, and 24 h post-gavage. Serum samples were freshly prepared by centrifugation (3,000 g, 20 min, 4 ℃), supernatant collection and storage at − 80 ℃ till analysis.
(§4) For serum extraction, 90 μL serum of indicated time points were pre-mixed with 10 μL IS working solution (myristic acid-D27, 10 μg/mL in methanol). 1 mL ethyl acetate was added to 100 μL premixed serum, vortexed vigorously for 5 min, and centrifuged (10,000 g, 15 min, 4 ℃) for protein precipitation. 700 μL of supernatant was transferred and evaporated to dryness under nitrogen flow. Prior to assay, samples were re-suspended with 100 μL methanol: distill water solution (4:1, v/v), sonicated and vortex-mixing for dissolve completely, and centrifuged (10,000 g, 20 min, 4 ℃). 10 μL of supernatant was analyzed using a connected system of AQUITY UPLC (Waters Corp., Milford, MA, USA) hybrid ZenoTOF 7600-MS/MS system (AB Sciex, Framingham, MA, USA) with electrospray ionization (ESI) source.
(§5) A reversed-phase Kinetex C18 column (2.1 × 100 mm, 2.6 μm, Phenomenex, CA, USA) was used, with 0.3 mL/min flow rate at 40 ℃. The mobile phase consisted of an aqueous solvent A (0.1% formic acid, v/v) and organic solvent B (acetonitrile with 0.1% formic acid, v/v). The elution gradient was as follows: 5–30% B (0–20 min); 30–95% B (20–27 min), maintained at 95% B (27–32 min); 95–5% B (32–33 min); and 5% B (33–38 min) to equilibrate the system.
(§6) The instrumental parameters of mass spectrometry were as follows: ion source gas 1 and gas 2 were both 55 psi, curtain gas was 35 psi, the CAD gas was 8 psi, and the ion source temperature was 550 °C. The ion spray voltage floating (ISVF) was set to 5500 V for positive mode and − 4500 V for negative mode. The collision energy (CE) and collision energy spread (CES) were set to 35 V and 15 eV, and declustering potential was 80 V. The mass-to-charge ratio (m/z) range was set to 50–1500 Da, with an accumulation time of 0.15 s. Data were collected by SCIEX OS software (version 3.3.0.12027, AB Sciex, Framingham, MA, USA) in information-dependent acquisition (IDA) mode.

In order of rising AUC(0-inf):
1. CC(C)C(=O)CCC(C(=O)O)C1C(O)CC2(C)C3=C(CCC12C)C1(C)CCC(O)C(C)(C)C1CC3 (stereo not drawn) [Daedaleanic acid B]  0.17 ± 0.0276 µg·h/mL
2. CC(=CCCC(C(=O)O)C1C(O)CC2(C)C3=CCC4C(C)(CCC(O)C4(C)C)C3=CCC12C)CO (stereo not drawn) [Dihydroxydehydrotrametenoic acid]  3.27 ± 0.142 µg·h/mL
3. CC(C)=CC1CC(C2CCC3(C)C4=CCC5C(C)(CCC(O)C5(C)C)C4=CCC23C)C(=O)O1 (stereo not drawn) [Porilactone A]  9.2 ± 0.744 µg·h/mL
4. CC(C)=CCCC(C(=O)O)C1C(O)CC2(C)C3=CCC4C(C)(CCC(O)C4(C)C)C3=CCC12C (stereo not drawn) [16alpha-Hydroxydehydrotrametenolic acid]  136 µg·h/mL

In order of rising AUC(0-t):
1. CC(C)C(=O)CCC(C(=O)O)C1C(O)CC2(C)C3=C(CCC12C)C1(C)CCC(O)C(C)(C)C1CC3 (stereo not drawn) [Daedaleanic acid B]  0.129 ± 0.0325 µg·h/mL
2. CC(=CCCC(C(=O)O)C1C(O)CC2(C)C3=CCC4C(C)(CCC(O)C4(C)C)C3=CCC12C)CO (stereo not drawn) [Dihydroxydehydrotrametenoic acid]  3.03 ± 0.356 µg·h/mL
3. CC(C)=CC1CC(C2CCC3(C)C4=CCC5C(C)(CCC(O)C5(C)C)C4=CCC23C)C(=O)O1 (stereo not drawn) [Porilactone A]  9.46 ± 0.501 µg·h/mL
4. CC(C)=CCCC(C(=O)O)C1C(O)CC2(C)C3=CCC4C(C)(CCC(O)C4(C)C)C3=CCC12C (stereo not drawn) [16alpha-Hydroxydehydrotrametenolic acid]  136 µg·h/mL

In order of falling Cmax:
1. CC(C)=CCCC(C(=O)O)C1C(O)CC2(C)C3=CCC4C(C)(CCC(O)C4(C)C)C3=CCC12C (stereo not drawn) [16alpha-Hydroxydehydrotrametenolic acid]  16.8 µg/mL
2. CC(C)=CC1CC(C2CCC3(C)C4=CCC5C(C)(CCC(O)C5(C)C)C4=CCC23C)C(=O)O1 (stereo not drawn) [Porilactone A]  0.846 ± 0.0319 µg/mL
3. CC(=CCCC(C(=O)O)C1C(O)CC2(C)C3=CCC4C(C)(CCC(O)C4(C)C)C3=CCC12C)CO (stereo not drawn) [Dihydroxydehydrotrametenoic acid]  0.308 ± 0.0356 µg/mL
4. CC(C)C(=O)CCC(C(=O)O)C1C(O)CC2(C)C3=C(CCC12C)C1(C)CCC(O)C(C)(C)C1CC3 (stereo not drawn) [Daedaleanic acid B]  0.0206 ± 0.0008 µg/mL

In order of rising Tmax:
1. CC(C)C(=O)CCC(C(=O)O)C1C(O)CC2(C)C3=C(CCC12C)C1(C)CCC(O)C(C)(C)C1CC3 (stereo not drawn) [Daedaleanic acid B]  1.35 ± 0.68 h
2. CC(C)=CCCC(C(=O)O)C1C(O)CC2(C)C3=CCC4C(C)(CCC(O)C4(C)C)C3=CCC12C (stereo not drawn) [16alpha-Hydroxydehydrotrametenolic acid]  4.4 ± 0.75 h
3. CC(=CCCC(C(=O)O)C1C(O)CC2(C)C3=CCC4C(C)(CCC(O)C4(C)C)C3=CCC12C)CO (stereo not drawn) [Dihydroxydehydrotrametenoic acid]  4.4 ± 0.75 h
4. CC(C)=CC1CC(C2CCC3(C)C4=CCC5C(C)(CCC(O)C5(C)C)C4=CCC23C)C(=O)O1 (stereo not drawn) [Porilactone A]  6.5 ± 1.89 h

In order of rising half-life:
1. CC(C)=CCCC(C(=O)O)C1C(O)CC2(C)C3=CCC4C(C)(CCC(O)C4(C)C)C3=CCC12C (stereo not drawn) [16alpha-Hydroxydehydrotrametenolic acid]  1.78 ± 0.09 h
2. CC(C)=CC1CC(C2CCC3(C)C4=CCC5C(C)(CCC(O)C5(C)C)C4=CCC23C)C(=O)O1 (stereo not drawn) [Porilactone A]  2.15 ± 0.24 h
3. CC(C)C(=O)CCC(C(=O)O)C1C(O)CC2(C)C3=C(CCC12C)C1(C)CCC(O)C(C)(C)C1CC3 (stereo not drawn) [Daedaleanic acid B]  3.84 ± 0.75 h
4. CC(=CCCC(C(=O)O)C1C(O)CC2(C)C3=CCC4C(C)(CCC(O)C4(C)C)C3=CCC12C)CO (stereo not drawn) [Dihydroxydehydrotrametenoic acid]  4.98 ± 1.07 h

experiment: Pharmacokinetics of absorbed triterpenoid prototypes in rat serum after oral YLQS extract; details: male, Sprague-Dawley, 36.99 g/kg
Protocol: as §1, §2, §3, §4, §5, §6

In order of falling AUC(0-inf):
1. C=C(C)[C@@H]1CCC2=C(CC[C@]3(C)[C@@H]([C@@H](CCC=C(C)C)C(=O)O)[C@H](O)C[C@@]23C)[C@@]1(C)CCC(=O)O [Poricoic acid G]  4.42 ± 0.367 µg·h/mL
2. C=C(C)C1CC=C2C(=CCC3(C)C(C(CCC=C(C)C)C(=O)O)CCC23C)C1(C)CCC(=O)O (stereo not drawn) [16-Deoxyporicoic acid B]  2.54 ± 0.264 µg·h/mL
3. C=C(C)[C@@H]1CC=C2C(=CC[C@]3(C)[C@@H]([C@@H](CCC=C(C)C)C(=O)O)[C@H](O)C[C@@]23C)[C@@]1(C)CCC(=O)O [Poricoic acid B]  2.29 ± 0.621 µg·h/mL
4. C=C(C)C1CC=C2C(=CCC3(C)C(C(CCC=C(C)CO)C(=O)O)C(O)CC23C)C1(C)CCC(=O)O (stereo not drawn) [Poricoic acid E]  0.223 ± 0.0306 µg·h/mL
5. C=C(C)[C@@H]1CC=C2C(=CC[C@]3(C)[C@@H]([C@@H](CCC(=C)C(C)(C)O)C(=O)O)[C@H](O)C[C@@]23C)[C@@]1(C)CCC(=O)OC [Poricoic acid DM]  0.105 ± 0.0136 µg·h/mL
6. C=C(C)C1CC=C2C(=CCC3(C)C(C(CCC(=C)C(C)(C)O)C(=O)O)C(O)CC23C)C1(C)CCC(=O)O (stereo not drawn) [Poricoic acid D]  0.082 ± 0.0051 µg·h/mL

In order of rising AUC(0-t):
1. C=C(C)C1CC=C2C(=CCC3(C)C(C(CCC(=C)C(C)(C)O)C(=O)O)C(O)CC23C)C1(C)CCC(=O)O (stereo not drawn) [Poricoic acid D]  0.068 ± 0.0101 µg·h/mL
2. C=C(C)[C@@H]1CC=C2C(=CC[C@]3(C)[C@@H]([C@@H](CCC(=C)C(C)(C)O)C(=O)O)[C@H](O)C[C@@]23C)[C@@]1(C)CCC(=O)OC [Poricoic acid DM]  0.0771 ± 0.0124 µg·h/mL
3. C=C(C)C1CC=C2C(=CCC3(C)C(C(CCC=C(C)CO)C(=O)O)C(O)CC23C)C1(C)CCC(=O)O (stereo not drawn) [Poricoic acid E]  0.205 ± 0.0251 µg·h/mL
4. C=C(C)C1CC=C2C(=CCC3(C)C(C(CCC=C(C)C)C(=O)O)CCC23C)C1(C)CCC(=O)O (stereo not drawn) [16-Deoxyporicoic acid B]  1.97 ± 0.28 µg·h/mL
5. C=C(C)[C@@H]1CC=C2C(=CC[C@]3(C)[C@@H]([C@@H](CCC=C(C)C)C(=O)O)[C@H](O)C[C@@]23C)[C@@]1(C)CCC(=O)O [Poricoic acid B]  2.71 ± 0.417 µg·h/mL
6. C=C(C)[C@@H]1CCC2=C(CC[C@]3(C)[C@@H]([C@@H](CCC=C(C)C)C(=O)O)[C@H](O)C[C@@]23C)[C@@]1(C)CCC(=O)O [Poricoic acid G]  4.09 ± 0.442 µg·h/mL

In order of rising Cmax:
1. C=C(C)C1CC=C2C(=CCC3(C)C(C(CCC(=C)C(C)(C)O)C(=O)O)C(O)CC23C)C1(C)CCC(=O)O (stereo not drawn) [Poricoic acid D]  0.0075 ± 0.0013 µg/mL
2. C=C(C)[C@@H]1CC=C2C(=CC[C@]3(C)[C@@H]([C@@H](CCC(=C)C(C)(C)O)C(=O)O)[C@H](O)C[C@@]23C)[C@@]1(C)CCC(=O)OC [Poricoic acid DM]  0.0132 ± 0.002 µg/mL
3. C=C(C)C1CC=C2C(=CCC3(C)C(C(CCC=C(C)CO)C(=O)O)C(O)CC23C)C1(C)CCC(=O)O (stereo not drawn) [Poricoic acid E]  0.016 ± 0.0027 µg/mL
4. C=C(C)[C@@H]1CC=C2C(=CC[C@]3(C)[C@@H]([C@@H](CCC=C(C)C)C(=O)O)[C@H](O)C[C@@]23C)[C@@]1(C)CCC(=O)O [Poricoic acid B]  0.214 ± 0.0538 µg/mL
5. C=C(C)C1CC=C2C(=CCC3(C)C(C(CCC=C(C)C)C(=O)O)CCC23C)C1(C)CCC(=O)O (stereo not drawn) [16-Deoxyporicoic acid B]  0.29 ± 0.0445 µg/mL
6. C=C(C)[C@@H]1CCC2=C(CC[C@]3(C)[C@@H]([C@@H](CCC=C(C)C)C(=O)O)[C@H](O)C[C@@]23C)[C@@]1(C)CCC(=O)O [Poricoic acid G]  0.47 ± 0.0892 µg/mL

In order of rising Tmax:
1. C=C(C)[C@@H]1CC=C2C(=CC[C@]3(C)[C@@H]([C@@H](CCC(=C)C(C)(C)O)C(=O)O)[C@H](O)C[C@@]23C)[C@@]1(C)CCC(=O)OC [Poricoic acid DM]  4 ± 1.41 h
2. C=C(C)[C@@H]1CC=C2C(=CC[C@]3(C)[C@@H]([C@@H](CCC=C(C)C)C(=O)O)[C@H](O)C[C@@]23C)[C@@]1(C)CCC(=O)O [Poricoic acid B]  5.5 ± 0.96 h
3. C=C(C)[C@@H]1CCC2=C(CC[C@]3(C)[C@@H]([C@@H](CCC=C(C)C)C(=O)O)[C@H](O)C[C@@]23C)[C@@]1(C)CCC(=O)O [Poricoic acid G]  5.5 ± 0.96 h
4. C=C(C)C1CC=C2C(=CCC3(C)C(C(CCC=C(C)C)C(=O)O)CCC23C)C1(C)CCC(=O)O (stereo not drawn) [16-Deoxyporicoic acid B]  5.6 ± 0.75 h
5. C=C(C)C1CC=C2C(=CCC3(C)C(C(CCC(=C)C(C)(C)O)C(=O)O)C(O)CC23C)C1(C)CCC(=O)O (stereo not drawn) [Poricoic acid D]  6.4 ± 1.72 h
6. C=C(C)C1CC=C2C(=CCC3(C)C(C(CCC=C(C)CO)C(=O)O)C(O)CC23C)C1(C)CCC(=O)O (stereo not drawn) [Poricoic acid E]  8.5 ± 1.5 h

In order of falling half-life:
1. C=C(C)C1CC=C2C(=CCC3(C)C(C(CCC=C(C)CO)C(=O)O)C(O)CC23C)C1(C)CCC(=O)O (stereo not drawn) [Poricoic acid E]  6.64 ± 0.75 h
2. C=C(C)C1CC=C2C(=CCC3(C)C(C(CCC(=C)C(C)(C)O)C(=O)O)C(O)CC23C)C1(C)CCC(=O)O (stereo not drawn) [Poricoic acid D]  5.51 ± 0.88 h
3. C=C(C)C1CC=C2C(=CCC3(C)C(C(CCC=C(C)C)C(=O)O)CCC23C)C1(C)CCC(=O)O (stereo not drawn) [16-Deoxyporicoic acid B]  4.95 ± 0.81 h
4. C=C(C)[C@@H]1CC=C2C(=CC[C@]3(C)[C@@H]([C@@H](CCC(=C)C(C)(C)O)C(=O)O)[C@H](O)C[C@@]23C)[C@@]1(C)CCC(=O)OC [Poricoic acid DM]  4.61 ± 1.21 h
5. C=C(C)[C@@H]1CC=C2C(=CC[C@]3(C)[C@@H]([C@@H](CCC=C(C)C)C(=O)O)[C@H](O)C[C@@]23C)[C@@]1(C)CCC(=O)O [Poricoic acid B]  4.11 ± 0.82 h
6. C=C(C)[C@@H]1CCC2=C(CC[C@]3(C)[C@@H]([C@@H](CCC=C(C)C)C(=O)O)[C@H](O)C[C@@]23C)[C@@]1(C)CCC(=O)O [Poricoic acid G]  3.5 ± 1.08 h

experiment: not given; details: rat, in vivo

In the case of `CC(C)=CC1CC(C2CCC3(C)C4=CCC5C(C)(CCC(O)C5(C)C)C4=CCC23C)C(=O)O1` (stereo not drawn) [Porilactone A], the “Absorption pattern of serum concentration-time curve” value is reported as “double-peak absorption pattern”.

— PMC12125420, “Yinling Qushi Granule as a therapeutic agent for metabolic syndrome: pharmacological, molecular targets, and pharmacokinetic insights” (Advanced Biotechnology, 2025)
